From publication PMC3744530, “CTA095, a Novel Etk and Src Dual Inhibitor, Induces Apoptosis in Prostate Cancer Cells and Overcomes Resistance to Src Inhibitors” (PLoS ONE, 2013)

Legend:
Etk = target: T1, Etk (Homo sapiens, UniProt P51813); assay: Etk autophosphorylation assay (in vitro kinase assay); type: biochemical; details: purified Etk, 33P-ATP, 30 min
T1 construct: purchased Millipore Inc (Dundee, UK)
T1 sequence (P51813 1-675): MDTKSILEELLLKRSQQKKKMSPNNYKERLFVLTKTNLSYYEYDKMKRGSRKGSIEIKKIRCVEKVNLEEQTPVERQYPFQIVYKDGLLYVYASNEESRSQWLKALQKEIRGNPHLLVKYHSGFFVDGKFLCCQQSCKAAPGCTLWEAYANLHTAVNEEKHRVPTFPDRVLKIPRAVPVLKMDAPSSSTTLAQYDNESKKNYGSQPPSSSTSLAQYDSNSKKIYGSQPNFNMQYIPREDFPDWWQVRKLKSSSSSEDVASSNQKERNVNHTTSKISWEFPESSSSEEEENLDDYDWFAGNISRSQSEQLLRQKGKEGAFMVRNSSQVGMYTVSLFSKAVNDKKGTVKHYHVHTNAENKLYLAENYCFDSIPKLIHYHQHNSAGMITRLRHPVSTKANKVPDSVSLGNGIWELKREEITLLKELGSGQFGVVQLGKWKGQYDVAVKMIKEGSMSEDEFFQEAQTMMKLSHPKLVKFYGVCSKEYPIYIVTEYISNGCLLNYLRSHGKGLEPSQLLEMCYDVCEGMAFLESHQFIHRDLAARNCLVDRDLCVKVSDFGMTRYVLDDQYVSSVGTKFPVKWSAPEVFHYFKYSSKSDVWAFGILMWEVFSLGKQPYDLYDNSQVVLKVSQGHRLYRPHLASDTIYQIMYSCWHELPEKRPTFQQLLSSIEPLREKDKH
Protocol: Etk autophosphorylation activity was measured by an in vitro kinase assay. Briefly, purified Etk (100 ng) was mixed with CTA095 in the kinase assay buffer (20 mM Hepes pH 7.55, 10 mM MgCl2, 10 mM MnCl2, 1 mM DTT, 500 μM Na3VO4). The cold ATP (5 µM) and hot r-^33P-ATP (5 µCi) were added to the mixture and the kinase reaction was performed at 30°C for 30 min. The reactions were terminated with a 4X SDS-PAGE sample buffer, and then loaded onto an 8% SDS-polyacrylamide gel for electrophoresis. The gel was vacuum dried and the ETK auto kinase activity was analyzed with a phosphoimager (Biorad).
The Btk family of non-receptor tyrosine kinases is characterized by the presence of an autophosphorylation site within the non-catalytic Src homology 3 (SH3) domain. Thus, it was also important to determine the ability of CTA095 to inhibit Etk autophosphorylation. Therefore, an in vitro Etk autophosphorylation assay was established in which purified Etk was mixed with CTA095 in the presence of ^33P-ATP. After 30 min, the reaction was terminated, and the samples were loaded onto an SDS-polyacrylamide gel for electrophoresis. After drying, the gel was analyzed with a phosphoimager.

[1] = tested on: Akt phosphorylation in PC3 cells; assay: Western blot of Akt phosphorylation; type: cell-based, human; details: 24 h
Protocol: Western blotting was performed as described previously. Proteins were detected using the following antibodies: β-actin (Sigma-Aldrich, Saint Louis, MO), Etk (Santa Cruz Inc., Santa Cruz, CA), pEtk; Src, pSrc; Stat3, pStat3. For phospho-Etk, cells were pre-treated with 100 μM pervanadate for 15 min before harvest.
Figure 4 Inhibition of cell signaling in PC3 cells following treatment with CTA095. Cells were grown in 10 mm plate to 50% confluence and treated with CTA095. Cells were harvested after 24 h. pEtk, Etk, pSrc, Src, pStat3, Stat3, pAkt and Akt levels were measured using the corresponding antibodies by Western blot. One of three similar experiments depicted.

HUVEC cells = assay: HUVEC cell tube formation assay; type: cell-based; details: 5 μM, 6 h
Protocol: HUVEC cells were seeded on mitrogel and treated with CTA095 (0 and 5 μM) for 6 h. Vascular tube formation was visualized using a microscope.
Figure 8 Inhibition of tube formation and cell migration by CTA095. Inhibition of vascular tube formation of HUVEC endothelial cells (A) and inhibition of migration (wound healing) of PC3 human prostate cancer cells (B) by CTA095. (A) HUVEC cells were seed on mitrogel and treated with CTA095 (0 and 5 μM) for 6 h. Vascular tube formation was visualized using microscope. (B) PC3 cells were grown in 6-well plate to 60% confluency. Then wounds were made and treated with CTA095 (0 and 5 μM). Cell migration (wound healing) was visualized under microscope at the indicated times.

PC3-AZD20 cells = assay: MTT cell viability in Src inhibitor resistant cells; type: cell-based, human; details: 72 h
Protocol: PC3 and PC3-AZD20 (PC3 cell resistant to 20 μM AZD0530, which is from AstraZeneca through MTA with Dr. Chris Evans) cells were seeded at 2000 cells/well in 96 well plates overnight. The cells were treated with AZD0530 or CTA095 at the indicated concentrations. Cell viability was measured using an MTT assay after 72 h.
Figure 11 CTA095 overcomes Src inhibitor resistance in prostate cancer cells. PC3 and PC3-AZD20 (PC3 cell resistant to 20 μM AZD0530) cells were seeded at 2000 cells/well in 96 well plates overnight. The cells were treated with AZD0530 or CTA095 at the indicated concentrations. Cell viability was measured using MTT assay after 72 h. Symbols, mean; bars, standard deviation, n = 3.

[2] = tested on: pEtk, pSrc, pSTAT3, Myc and BCL2 in PC3-AZD20 cells; assay: Western blot of pEtk, pSrc, pStat3, Myc and BCL2; type: cell-based, human; details: PC3-AZD20, 10 μM
Protocol: PC3-AZD20 cells were seeded at 10^6 cells/well in 6 well plates overnight. The cells were treated with AZD0530 or CTA095 at 10 μM. Apoptosis was analyzed using Annexin-V FITC apoptosis detection kit. The mRNA levels of Myc and BCL2 were measured using real-time PCR. pEtk, Etk, pSrc, Src, pStat3, Stat3, Myc and BCL2 levels were measured using the corresponding antibodies through a Western blot.
Figure 12 CTA095 induces apoptosis in Src inhibitor resistant prostate cancer cells through Myc and BCL2 inhibition. PC3-AZD20 (PC3 cell resistant to 20 μM AZD0530) cells were seeded at 10^6 cells/well in 6 well plates overnight. The cells were treated with AZD0530 or CTA095 at 10 μM. Apoptosis was analyzed using Annexin-V FITC apoptosis detection kit (A). The mRNA levels of Myc and BCL2 were measured using real-time PCR (B). pEtk, Etk, pSrc, Src, pStat3, Stat3, Myc and BCL2 levels were measured using the corresponding antibodies through Western blot (C). Columns, mean; bars, standard deviation, n = 3.

For `O=c1[nH]c2cc3nc(-c4ccc5oc6ccccc6c5c4)n(CCCN4CCCCC4)c3cc2nc1-c1ccccc1` [CTA095, 2-(dibenzo[b,d]furan-2-yl)-7-phenyl-1-(3-(piperidin-1-yl)propyl)-1H-imidazo[4,5-g]quinoxalin-6(5H)-one], the Etk autophosphorylation (Etk) was “inhibit Etk autophosphorylation in a concentration dependent manner”, the Akt phosphorylation [1] was “inhibited” and the “tube formation of HUVEC cells” value (HUVEC cells) was “disrupted”. For the same compound, the “IC50 in PC3-AZD20 cells” value (PC3-AZD20 cells) was “almost identical to that of the parental PC3 cells”, the “cell viability / sensitivity of PC3-AZD20 cells” value (PC3-AZD20 cells) was “highly sensitive” and the “pEtk, pSrc, pSTAT3, Myc and BCL2 protein levels” value [2] was “all down regulated”.
